The source of these data is US20200222410A1, “NUCLEOCYTOPLASMIC REGULATOR OF AUTOPHAGY-ASSOCIATED TRANSCRIPTION FACTORS” (BROWN UNIVERSITY, priority 2017, published 2020).

Values joined by “and” are separate entries in the source; they are usually repeats but may differ in a detail not shown here. Identical values can stand only once. “Also recorded” adds a separate entry of the source.

In one experiment the test system is dsodH71Y flies. Description: Lifespan analysis of ALS model in flies (dsodH71Y). The format is in vivo, D. melanogaster. Particulars: for Drug treatment Mean Lifespan: H71Y Sod-1 (dsod) flies, 25° C.; for % Difference in mean lifespan vs vehicle control: H71Y flies. The method, then: l Lifespan analysis in Drosophila: Measurement of lifespan (25° C.) in dsodH71Y was performed as previously described in the art (Sahin et al., 2017, Human SOD1 ALS Mutations in a Drosophila Knock-In Model Cause Severe Phenotypes and Reveal Dosage-Sensitive Gain- and Loss-of-Function Components. Genetics 205, 707-723). The software Stata 13.0 was used to perform Mantel-Cox log rank statistical analyses.

Experiment [1] concerns polyQ-containing protein aggregates. Description: polyQ aggregate formation (Q35::GFP muscle, Q40::YFP intestine). It is filed as in vivo, C. elegans. Particulars: day 5 animals, 100 μM. The method, then:
(§1) Proteostasis analyses: Heat shock analyses were performed at 37° C. and scoring survival every hour. Aggregation was visualized by fluorescent microscopy using strains expressing Q35::GFP in muscle (AM140) (Morley et al., 2002, The threshold for polyglutamine-expansion protein aggregation and cellular toxicity is dynamic and influenced by aging in Caenorhabditis elegans. Proc Natl Acad Sci USA 99, 10417-10422) or Q40::YFP in intestine (GF78) (Mohri-Shiomi and Garsin, (2008) Insulin signaling and the heat shock response modulate protein homeostasis in the Caenorhabditis elegans intestine during infection. J Biol Chem 283, 194-201). Aggregate clearance was assayed with a strain (GMC101) (McColl et al., (2012). Utility of an improved model of amyloid-beta (Abeta(1)(−) (4)(2)) toxicity in Caenorhabditis elegans for drug screening for Alzheimer's disease. Mol Neurodegener 7, 57). […]) inducing expression of human Aβ42 at 25° C. Following a 5-day RNAi feeding, paralysis was assayed after 48 hours at 25° C.

Experiment [2] relates to C. elegans. Description: Lifespan analysis of C. elegans. It is filed as in vivo. As to conditions: for lifespan of treated animals compared to vehicle-treated controls: C. elegans wild-type; for % Difference in mean lifespan vs vehicle control / Drug treatment Mean Lifespan: N2 wild-type; for Drug treatment Mean Lifespan: 20° C. The method, then: Lifespan analysis: Worms were synchronized by bleaching and eggs were grown on OP50 E. coli during development. Day 1 adults were transferred onto corresponding RNAi plates and kept at 20° C. Mantel-Cox log rank statistical analyses were calculated using Stata 13.0.

The next experiment has as its system mCherry::GFP::LGG-1. Description: Autophagy analysis with tandem reporter mCherry::GFP::LGG-1 (autophagosome and autolysosome formation). The format is in vivo, C. elegans. Particulars: 50 or 100 μM, visualized after 48 hours. The procedure: Autophagy analysis: Worms expressing the tandem reporter GFP-mCherry-LGG-1 (Chang et al., (2017). Spatiotemporal regulation of autophagy during Caenorhabditis elegans aging. eLife 6) were treated from L4/day 1 of adulthood and imaged using an LSM 800 Zeiss Confocal Laser Scanning Microscope as previously described (Chang et al., (2017). Spatiotemporal regulation of autophagy during Caenorhabditis elegans aging. eLife 6). To functionally assess the effect of genetically or pharmacologically inhibiting xpo-1 on the autophagic pathway, autophagic flux (i.e. fusion of autophagosome to lysosome) was measured in C. elegans. Several fluorescent reporters of autophagy proteins (including LGG-1/LC3, SQST-1/P62) have been designed to observe and quantify autophagic flux. […] These animals were used to determine the effect of silencing (RNAi) xpo-1 on autophagy using fluorescent microscopy. The accumulation of unique red punctae represents active autolysosome formation, indicative of activated autophagy.

A further experiment has as its system HLH-30. Description: HLH-30::GFP nuclear localization in nematodes (fluorescent microscopy). It is filed as in vivo, C. elegans. The procedure:
The nematode C. elegans is an art-recognized system to identify genetic and pharmacological modifiers of various cellular processes. As such, an unbiased genome-wide RNAi screen for genetic modifiers of the activity of HLH-30/TFEB was performed (FIG. 1B). Specifically, enhancers of HLH-30 nuclear localization were searched for by following the distribution of HLH-30 fused to GFP.
HLH-30-GFP-expressing nematodes were fed HT115 E. coli bacteria transformed with a plasmid containing the L4440 backbone and a portion of the cDNA sequence complementary to the coding sequence of the xpo-1 gene. Nuclear enrichment was measured by fluorescent microscopy after animals were treated from eggs to day 1 of adulthood. The RNAi was based on the cosmid sequence ZK742.1 of the C. elegans genome. The sequence of the RNAi used is:
Fluorescent microscopy imaging: Transgenic worms were mounted on a 2% agarose pad with 0.1% sodium azide and imaged using a Zeiss Discovery V20 fluorescent microscope.
Animals were fed OP50 E. coli with 0.2% of DMSO (vehicle control) or 0.2% DMSO with KPT-330 at 0.2 mM. Nuclear localization of the HLH-30-GFP reporter and survival was measured.

For the next experiment, the system named is TFEB. The experiment in a line: TFEB-GFP nuclear localization in HeLa cells. It is filed as cell-based, human. As to conditions: TFEB-GFP-expressing HeLa cells, 1 μM, 6 hours. The procedure:
Cell culture: HeLa cells (ATCC) and HeLa cells expressing TFEB-GFP (S. Ferguson lab) were grown in 6-well plates on a coverslip for 24 hours in DMEM High Glucose (Genesee Scientific) containing 2 mM L-Glutamine, 1% Penicillin-Strep and 10% Fetal Bovine Serum (GenClone). For RNAi experiments, both HeLa cell lines were transfected with Silencer Select siRNA against XPO1 (5 nM) or TFEB (10 nM) or negative control siRNA #2 (Thermo Fisher Scientific) with RNAi Max (Thermo Fisher Scientific) and Opti-MEM (Gibco) for 48 hours. Cells were incubated for another 6 hours with DMSO 0.1%, Torin 1 […], KPT-330, KPT-276, KPT-185 or KPT-335 (1 μM) (Selleckchem). For Lysotracker analysis, cells on coverslips were previously grown with vehicle or compounds (including GSK-3β inhibitor VIII or Leptomycin b (10 nM) for 6 hours followed by a one hour incubation with 100 nM of Lysotracker Red DND-99 (Thermo Fisher Scientific) and live cells were imaged. Coverslips were mounted for imaging onto slides and imaged with a Zeiss Axiovert 200M Fluorescent Microscope. Lysotracker signal was quantified by measuring signal intensity over background of individual cells using ImageJ. For imaging TFEB-GFP signal, cells were fixed in methanol. Nuclear localization was quantified by counting cells that had higher GFP intensity in the nucleus compared to the cytoplasm measured using ImageJ.

In experiment [3] the test system is C. elegans. The experiment in a line: Heat stress survival assay (37° C.). It is filed as in vivo. Particulars: 100 μM. The procedure: as §1

Turning to `O=C(/C=C\n1cnc(-c2cc(C(F)(F)F)cc(C(F)(F)F)c2)n1)NNc1cnccn1` [KPT-330, Selinexor], the “Drug treatment Mean Lifespan” value is 9.8 days and 13.5 days in the experiment on dsodH71Y flies (both sexes, 100 μM); 12 days and 16.9 days in the experiment with dsodH71Y flies (females, 100 μM); 6.8 days and 6 days in the experiment with dsodH71Y flies (males, 100 μM); 21.7 days and 24 days in the experiment with C. elegans [2] (25 μM); 21.2 days and 24.8 days in the experiment with C. elegans [2] (50 μM); 22 days and 25.8 days with C. elegans [2] (100 μM). Also, the “% Difference in mean lifespan vs vehicle control” value was 24.0% and 18.4% in the experiment with dsodH71Y flies (both sexes, 100 μM); 26.3% and 27.1% with dsodH71Y flies (females, 100 μM); 12.4% and 13.2% in the experiment on C. elegans [2] (25 μM); 9.8% and 17% in the experiment on C. elegans [2] (50 μM); 14% and 21.7% in the experiment on C. elegans [2] (100 μM). Moreover, the “overall survivorship compared to control” value with dsodH71Y flies (dsodH71Y flies fed 100 μM during adulthood) is “beneficial impact on the overall survivorship”. Moreover, the “lifespan of females” value in the experiment with dsodH71Y flies (dsodH71Y flies, 100 μM) is given as “extended significantly”. Moreover, in experiment [1], the “formation of polyQ-containing (Q40::YFP) aggregates” value was “reduction in the formation”. The “lifespan of treated animals compared to vehicle-treated controls” value in the experiment on C. elegans [2] is “significant lifespan extension; also recorded: significant increase in the lifespan”. Moreover, the “Autophagy in pharynx and hypodermal seam cells” value with mCherry::GFP::LGG-1 was “enhanced”. In addition, the “nuclear localization of HLH-30” value with HLH-30 (Day 1 adults, 25, 50 and 100 μM for 72 hours) was “displayed nuclear localization of HLH-30”; in the experiment with HLH-30 (lower concentration (data not shown)), “also led to nuclear localization of HLH-30”. Moreover, in the experiment with HLH-30 (concentrations below 25 μM), the “Nuclear localization of HLH-30::GFP” value is “not detected”. Besides, the “nuclear localization of HLH-30 (fused to GFP)” value in the experiment with HLH-30 (nematodes grown on plates containing 2 mM) was “led to nuclear localization of HLH-30”. Moreover, the “nuclear localization of TFEB” value with TFEB is listed as “marked increase in nuclear localization of TFEB”. Besides, the “resistance to heat” value in the experiment on C. elegans [3] (day 1 to day 5 of adulthood) is “improved resistance to heat”. Besides, the “% Difference in heat stress survival vs vehicle control” value in the experiment with C. elegans [3] (N2 wild-type, Day 5 of adulthood) was 18.5% and 34.7%. In addition, the “Heat Stress survival (mean, hours)” value with C. elegans [3] (N2 wild-type, Day 5 of adulthood after 5 days of treatment) is 6.4 h and 6.2 h.
As to `O=C(/C=C\n1cnc(-c2cc(C(F)(F)F)cc(C(F)(F)F)c2)n1)N1CC(F)(F)C1` [KPT-276], in the experiment with C. elegans [2], the “lifespan of treated animals compared to vehicle-treated controls” value was “lifespan extension”. Moreover, in the experiment on C. elegans [2] (25 μM), the “% Difference in mean lifespan vs vehicle control” value is on record as 9.4% and the “Drug treatment Mean Lifespan” value is 23.2 days. The “nuclear enrichment of HLH-30” value in the experiment with HLH-30 (25 μM) is listed as “nuclear enrichment of HLH-30”. In the experiment on TFEB, the “nuclear localization of TFEB” value is “marked increase in nuclear localization of TFEB”.
As for `O=C(/C=C\n1cnc(-c2cc(C(F)(F)F)cc(C(F)(F)F)c2)n1)NNc1ccccn1` [KPT-335, Verdinexor], the “nuclear localization of TFEB” value in the experiment with TFEB is on record as “marked increase in nuclear localization of TFEB”.
On the same count and under the same terms, to `COc1cc(-c2ncn(/C=C\C(=O)OC(C)C)n2)cc(C(F)(F)F)c1` [KPT-185] belongs “marked increase in nuclear localization of TFEB”.
